Measured values: patent publication US20150291507A1, “PANTHENYL DOCOSAHEXAENEOATE AND ITS USE FOR TREATING AND PREVENTING CARDIOVASCULAR DISEASES” (PIERRE FABRE MEDICAMENT, priority 2010, published 2015)

Test system: atrial refractory period
Assay: Atrial refractory period in the anesthetized pig (electrical stimulation S1/S2, left atrium)
Assay type: in vivo, pig (male Landrace)
Description: The study was carried out on male Landrace pigs (20-25 kg). Anesthesia was maintained with isoflurane (0.5-3% of lung tidal volume). Number of respirations and tidal volume were adjusted so as to maintain blood gases within physiological limits. A left lateral thoracotomy was performed in the fourth intercostal space and the pericardium was opened. Polyethylene-filled catheters were introduced into the nearest thoracic artery to measure arterial pressure during the experiment and in the left saphenous vein to administer the active products or a control carrier. An atrial electrocardiogram (ECG) was continuously recorded, with three electrodes placed and sutured in the epicardium and the fourth serving as mass and placed in the thoracic muscles. Thus, the ECG provides information on atrial activity. Two bipolar electrodes were also placed in the left atrium at an interval of 0.3 cm and were maintained by fishing hooks. Electrical stimulations were carried out by a stimulator (DS 8000, WPI). […] The panthenyl docosahexaenoate of formula A (quantity: 10+10 mg/kg, n=4) was administered in the form of a bolus over 1 minute and then allowed to diffuse for 40 minutes. […]

CC/C=C\C/C=C\C/C=C\C/C=C\C/C=C\C/C=C\CCC(=O)OCCCNC(=O)C(O)C(C)(C)CO (stereo in doubt) [panthenyl docosahexaenoate of formula A, 3-[(2R)-2,4-dihydroxy-3,3-dimethylbutanamido]propyl(4Z,7Z,10Z,13Z,16Z,19Z)-docosa-4,7,10,13,16,19-hexaenoate]
increase in atrial refractory periods (ARPs) (intravenous 10 mg/kg + 10 mg/kg (bolus over 1 minute, then 40 minutes), anesthetized male Landrace pigs, n=4, p<0.001, placebo -4±3 ms): 19 ± 2 ms | activity on atrial refractory period compared with the panthenol diester (same formulation and administration, anesthetized pigs, FIG. 1): significantly more active than the panthenol diester
